The subject of test [1] is PyMT syngeneic breast cancer implant mouse model. The test can be described thus: PyMT syngeneic breast cancer model primary tumor growth. The settings on record: Compound 1 oral twice daily, paclitaxel IV every five days, 21 days. It is filed as in vivo. How it is done:
PyMT Syngeneic Breast Cancer Model Primary Tumor Growth
Briefly, 1×10^6 cells (dissociated from PyMT tumor fragments) in 0.1 mL total volume were implanted into the fourth mammary fat pad on the left side of female mice (FVB/NJ, JAXWEST:RB05 mice from Jackson Labs). A total of 10 mice were implanted in each group. Molecular Imaging, Inc.'s Animal Care and Use Committee approved all the experimental protocols and conducted experiments in compliance with all the laws, regulations and guidelines of the National Institutes of Health (NIH). […] Animals were dosed for 21 days. Body weights and tumor measurements were recorded three times weekly. Tumor burden (mg) was estimated from caliper measurements by the formula for the volume of a prolate ellipsoid assuming unit density as: Tumor burden (mg)=(L×W^2)/2, where L and W are the respective orthogonal tumor length and width measurements (mm).

For test [2] the test system is unchanged. The test can be described thus: PyMT syngeneic breast cancer model primary tumor macrophage accumulation (F4/80 staining). It is filed as in vivo. The settings on record: Compound 1 oral twice daily, paclitaxel IV every five days, 21 days.
Description: PyMT Syngeneic Breast Cancer Model Primary Tumor Macrophage Accumulation
(§4) Briefly, 1×10^6 cells (dissociated from PyMT tumor fragments) in 0.1 mL total volume were implanted into the fourth mammary fat pad on the left side of female mice (FVB/NJ, JAXWEST:RB05 mice from Jackson Labs). A total of 10 mice were implanted in each group. […] Animals were dosed for 21 days. Body weights and tumor measurements were recorded three times weekly.
At the end of study, tumors were excised and placed in formalin. Formalin-fixed tumor samples were then placed in paraffin blocks. Formalin fixed-paraffin embedded tissue slides were deparaffinized with xylene and hydrated to distilled water through a graduated series of alcohol rinses. Antigenic retrieval was performed using Dako's PT Link Module with a Tris/EDTA buffer target retrieval solution at 95° C. for 20 minutes. Once the slides cooled down, they were loaded onto a Dako AutostainerPlusLink for immunohistochemical staining at room temperature with F4/80 and CD31 antibodies, to stain for macrophages and endothelial cells, respectively. Endogenous peroxidase and alkaline phosphatase activity in the tissues was quenched with a Dual Endogenous Enzyme Block solution (Dako, S2003) for 5 minutes. […] Slides were scored for F4/80 staining using a scale of 0, no visible staining; 1, weak staining; 2, moderate staining; 3 strong staining.
The test system is the same in test [3]. The test can be described thus: PyMT syngeneic breast cancer model primary tumor TIE2 cell accumulation (TIE2 staining). It is filed as in vivo. The settings on record: Compound 1 oral twice daily, paclitaxel IV every five days, 21 days.
Description: as §4
At the end of study, tumors were excised and placed in formalin. Formalin-fixed tumor samples were then placed in paraffin blocks. The experimental formalin fixed-paraffin embedded tissue slides were deparaffinized with xylene and hydrated to distilled water through a graduated series of alcohol rinses. Antigenic retrieval was performed using Dako's PT Link Module with a Citrate pH 6 buffer target retrieval solution at 95° C. for 20 minutes. Once the slides cooled down, they were loaded onto a Dako AutostainerPlusLink for immunohistochemical staining at room temperature with both TIE2 and CD31 antibodies. Endogenous peroxidase and alkaline phosphatase activity in the tissues was quenched with a Dual Endogenous Enzyme Block solution (Dako, S2003) for 5 minutes. Non-specific protein binding was blocked with serum free Protein Block (Dako, X0909) for 5 minutes. […] Slides were scored for TIE2 staining using a scale of 0, no visible staining; 1, weak staining; 2, moderate staining; 3 strong staining.
Test [4] shares this test system. The test can be described thus: PyMT syngeneic breast cancer model lung metastasis evaluation, Compound 1 dosed intermittently with paclitaxel. It is filed as in vivo. The settings on record: Compound 1 oral twice weekly, paclitaxel IV every five days, 12 days. As for the experimental part: (§1) PyMT Syngeneic Breast Cancer Model Lung Metastasis Evaluation
(§2) Briefly, 1×10^6 cells (dissociated from PyMT tumor fragments and stored frozen in cell-freezing medium) in 0.1 mL total volume were implanted into the fourth mammary fat pad on the left side of female mice (FVB/NJ, JAXWEST:RB05 mice from Jackson Labs). A total of three mice were implanted in each group. Molecular Imaging, Inc.'s Animal Care and Use Committee approved all the experimental protocols and conducted experiments in compliance with all the laws, regulations and guidelines of the National Institutes of Health (NIH). […] Animals were dosed for 12 days. Body weights and tumor measurements were recorded three times weekly.
(§3) At the end of study, lung tissues were excised and placed in formalin. Formalin-fixed lung samples were then placed in paraffin blocks. Each lung block had three slides with two levels per slide cut and stained with Hematoxylin and Eosin. Metastatic lung nodules were counted via microscopy.

Test [5] has the same test system. The test can be described thus: PyMT syngeneic breast cancer model lung metastasis evaluation, Compound 1 dosed intermittently with eribulin. It is filed as in vivo. The following applies: Compound 1 oral twice weekly, eribulin IV three times weekly, 12 days. How it is done: as §1, §2, §3
For test [6] the test system is unchanged. The test can be described thus: PyMT syngeneic breast cancer model survival evaluation. The following applies: Compound 1 oral once or twice weekly, eribulin at 0.1 mg/kg IV three times weekly; tumors resected three days after treatment began. Type of test: in vivo. As for the experimental part: PyMT Syngeneic Breast Cancer Model Survival Evaluation
Briefly, 1×10^6 cells (dissociated from PyMT tumor fragments and stored frozen in cell-freezing medium) in 0.1 mL total volume were implanted into the fourth mammary fat pad on the left side of female mice (FVB/NJ, JAXWEST:RB05 mice from Jackson Labs). A total of ten mice were implanted in each group. Molecular Imaging, Inc.'s Animal Care and Use Committee approved all the experimental protocols and conducted experiments in compliance with all the laws, regulations and guidelines of the National Institutes of Health (NIH). […] Tumors were then resected three days after treatment began. Animals were then dosed for the duration of the survival experiment. Body weights and tumor measurements were recorded three times weekly.

The target of another test is T1, TIE2 (Homo sapiens, UniProt Q02763).
T1 construct: V5; expressed in transfected cells; host or cells: CHO-K1 (ATCC CCL-61), transient transfection with Lipofectamine LTX
The test can be described thus: TIE2-transfected CHO K1 phospho-TIE2 Western blot composition washout assay. It is filed as cell-based. The following applies: incubated 2 hours at 0.1 μM-1 μM prior to being washed out. As for the experimental part:
CHO-K1 cells (catalog #CCL-61) were obtained from the American Type Culture Collection (ATCC, Manassas, Va.). Briefly, cells were grown in F12K medium supplemented with 10% characterized fetal bovine serum (Invitrogen, Carlsbad, Calif.), 100 units/mL penicillin G, 100 μg/ml streptomycin, and 0.29 mg/mL L-glutamine (Invitrogen, Carlsbad, Calif.) at 37 degrees Celsius, 5% CO2, and 95% humidity. Cells were allowed to expand until reaching 70-95% confluence at which point they were subcultured or harvested for assay use.
TIE2-Transfected CHO K1 Phospho-TIE2 Western Blot Composition Washout Assay
CHO K1 cells (1×10^5 cells/well) were added to a 24-well tissue-culture treated plate in 1 mL of RPMI1640 medium supplemented with 10% characterized fetal bovine serum and 1× non-essential amino acids (Invitrogen, Carlsbad, Calif.). Cells were then incubated overnight at 37 degrees Celsius, 5% CO2, and 95% humidity. Medium was aspirated, and 0.5 mL of medium was added to each well. […] Fluorescence was detected using a Storm 840 phosphorimager (GE Healthcare, Piscataway, N.J.) in fluorescence mode. […] The 160 kDa phospho-TIE2 and total TIE2 bands were quantified using ImageQuant software (GE Healthcare, Piscataway, N.J.). […]
Background: Immunoblotting shows a protein as a band on a membrane.

Test [7] deals with HMVEC capillary tube formation. The test can be described thus: HMVEC capillary tube formation assay. The settings on record: Homo sapiens, ANG1-stimulated, 18 hours, read-out: IC50 value for inhibition of ANG1-stimulated HMVEC capillary tube formation. Type of test: cell-based. As for the experimental part:
HMVEC (Human microvascular endothelial cells; Catalog #PCS-110-010) cells were obtained from the American Type Culture Collection (ATCC, Manassas, Va.). Briefly, cells were grown in EGM-2 MV (Lonza, Walkersville, Md.) at 37 degrees Celsius, 5% CO2, and 95% humidity. Cells were allowed to expand until reaching 90-95% saturation at which point they were subcultured or harvested for assay use.
HMVEC Capillary Tube Formation Assay
HMVEC cells (1.5×10^4 cells/well) mixed with test composition or DMSO control and the appropriate growth factor (ANG1 or ANG2) or control were added to a 96-well tissue-culture treated plate coated with growth-factor reduced Matrigel in 0.1 mL of EBM-2 basal medium (Lonza, Walkersville, Md.). Cells were then incubated for 18 hours at 37 degrees Celsius, 5% CO2, and 95% humidity. Media was then gently aspirated and wells were gently washed with 0.1 mL EBM-2 basal medium. Media was again aspirated and 1 μM Calcein AM solution (Invitrogen, Carlsbad, Calif.) in basal medium was added to each well to fluorescently label live cells. Cells were then incubated for 30 minutes at 37 degrees Celsius, 5% CO2, and 95% humidity. Media was aspirated and wells were gently washed with phosphate-buffered saline twice. […] Data was analyzed using Prism software (GraphPad Software, San Diego, Calif.) to calculate IC50 values.

A value given as a limit tells only on which side of the number the result lay.

T1 sequence (Q02763 23-1124): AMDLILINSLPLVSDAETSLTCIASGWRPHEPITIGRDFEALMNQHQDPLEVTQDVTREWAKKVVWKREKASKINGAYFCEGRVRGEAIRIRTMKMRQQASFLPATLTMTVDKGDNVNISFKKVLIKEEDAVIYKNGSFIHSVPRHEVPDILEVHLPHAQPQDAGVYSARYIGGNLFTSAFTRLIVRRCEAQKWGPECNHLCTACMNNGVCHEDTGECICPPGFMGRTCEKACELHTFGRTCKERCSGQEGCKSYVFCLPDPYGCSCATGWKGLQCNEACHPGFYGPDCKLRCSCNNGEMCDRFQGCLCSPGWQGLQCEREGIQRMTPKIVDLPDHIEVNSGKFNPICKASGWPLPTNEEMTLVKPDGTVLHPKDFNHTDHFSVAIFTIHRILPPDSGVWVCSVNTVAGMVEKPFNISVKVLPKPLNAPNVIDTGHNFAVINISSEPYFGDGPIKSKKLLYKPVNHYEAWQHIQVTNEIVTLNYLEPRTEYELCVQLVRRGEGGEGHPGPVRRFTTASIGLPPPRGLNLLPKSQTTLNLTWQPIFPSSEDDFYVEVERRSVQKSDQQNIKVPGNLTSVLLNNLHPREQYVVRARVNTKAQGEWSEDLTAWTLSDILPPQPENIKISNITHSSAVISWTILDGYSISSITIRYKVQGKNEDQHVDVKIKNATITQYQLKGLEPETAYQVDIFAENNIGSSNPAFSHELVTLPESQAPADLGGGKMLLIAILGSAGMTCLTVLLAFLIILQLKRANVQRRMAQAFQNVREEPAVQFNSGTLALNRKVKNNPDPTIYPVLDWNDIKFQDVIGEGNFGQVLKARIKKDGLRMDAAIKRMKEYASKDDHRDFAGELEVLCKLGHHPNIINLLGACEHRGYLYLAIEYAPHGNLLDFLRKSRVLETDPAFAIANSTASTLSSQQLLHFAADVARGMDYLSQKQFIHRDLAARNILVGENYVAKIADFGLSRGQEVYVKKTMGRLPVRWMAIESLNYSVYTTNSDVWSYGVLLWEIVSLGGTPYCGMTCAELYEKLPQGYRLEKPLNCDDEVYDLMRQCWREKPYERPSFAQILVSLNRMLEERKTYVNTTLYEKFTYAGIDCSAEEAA

For the compound `CC(=O)O[C@H]1C(=O)[C@@]2(C)[C@H]([C@H](OC(=O)c3ccccc3)[C@]3(O)C[C@H](OC(=O)[C@H](O)[C@@H](NC(=O)c4ccccc4)c4ccccc4)C(C)=C1C3(C)C)[C@]1(OC(C)=O)CO[C@@H]1C[C@@H]2O` [paclitaxel, reference compound], in test [1], the “primary tumor growth (tumor burden), FIG. 1” value was “tumor growth inhibition”. Also, in test [2], the “macrophage accumulation at the primary tumor (F4/80 staining), FIG. 2” value was “did not decrease macrophage accumulation”. For the same compound, in test [3], the “TIE2-expressing cell accumulation at the primary tumor (TIE2 staining), FIG. 3” value is on record as “did not decrease TIE2-expressing cell accumulation”. Further, in test [4], the “lung metastasis (metastatic lung nodules), FIG. 5” value is on record as “decrease in lung metastasis”.

Regarding `C=C1C[C@@H]2CC[C@@]34C[C@H]5O[C@H]6[C@@H](O3)[C@H]3O[C@H](CC[C@@H]3O[C@H]6[C@H]5O4)CC(=O)C[C@@H]3[C@@H](OC)[C@@H](C[C@H](O)CN)O[C@H]3C[C@H]3O[C@@H](CC[C@@H]1O2)C[C@@H](C)C3=C` [eribulin], the “lung metastasis (metastatic lung nodules), FIG. 6” value in test [5] was “decrease (or increase at low dose) in lung metastasis”. In addition, the “survival, FIG. 7” value in test [6] is listed as “no increase in survival”.

Usually IC50 stands for the point on the concentration scale where inhibition reaches its midpoint. As to `CNC(=O)c1cc(Oc2ccc(NC(=O)Nc3cc(C(C)(C)C)nn3-c3ccc4ncccc4c3)c(F)c2)ccn1.Cc1ccc(S(=O)(=O)O)cc1` [Compound 1, 1-(3-tert-butyl-1-(quinolin-6-yl)-1H-pyrazol-5-yl)-3-(2-fluoro-4-(2-(methylcarbamoyl)pyridin-4-yloxy)phenyl)urea para-toluene sulfonic acid salt], at TIE2, the “duration of >50% inhibition of phospho-TIE2 levels after washout” value was > 24 h. Besides, the “inhibition of phospho-TIE2 levels after washout” value against TIE2 (maintained for >24 hours) is given as > 50%. For the same compound, the IC50 in test [7] came to 6.9 nM. Further, the “primary tumor growth (tumor burden), FIG. 1” value in test [1] is “tumor growth inhibition”. In addition, the “macrophage accumulation at the primary tumor (F4/80 staining), FIG. 2” value in test [2] is “decrease in macrophage accumulation”. Also, in test [3], the “TIE2-expressing cell accumulation at the primary tumor (TIE2 staining), FIG. 3” value is reported as “decrease in TIE2-expressing cell accumulation”.
